How the values were obtained:
in vivo [1] = settings: ICR, mouse, po, 5 mg/kg
in vivo [2] = settings: ICR, mouse, po, 10 mg/kg
in vivo [3] = settings: ICR, mouse, iv, 5 mg/kg
in vivo [4] = settings: ICR, mouse, ip, 10 mg/kg
in vivo [5] = settings: ICR, mouse, iv, 5 mg/kg; remark: listed apart in the source
in vivo [6] = settings: ICR, mouse, iv, 5 mg/kg; remark: listed apart in the source
in vivo [7] = settings: ICR, mouse, iv, 5 mg/kg; remark: listed apart in the source
in vivo [8] = settings: ICR, mouse, po, 5 mg/kg; remark: listed apart in the source
in vivo [9] = settings: ICR, mouse, ip, 10 mg/kg; remark: listed apart in the source
in vivo [10] = settings: ICR, mouse, po, 5 mg/kg; remark: listed apart in the source
in vivo [11] = settings: ICR, mouse, ip, 10 mg/kg; remark: listed apart in the source
in vivo [12] = settings: ICR, mouse, iv, 5 mg/kg; remark: listed apart in the source
in vivo [13] = settings: ICR, mouse, po, 5 mg/kg; remark: listed apart in the source
in vivo [14] = settings: ICR, mouse, ip, 10 mg/kg; remark: listed apart in the source
in vivo [15] = settings: ICR, mouse, iv, 5 mg/kg; remark: listed apart in the source
in vivo [16] = settings: ICR, mouse, iv, 5 mg/kg; remark: listed apart in the source
in vivo [17] = settings: ICR, mouse, ip, 10 mg/kg; remark: listed apart in the source

MRT (in vivo [1]): 30.6 min | bioavailability (in vivo [2]): 121% | half-life (in vivo [3]): 116 min | Cmax (in vivo [4]): 1160 ng/mL | AUC(0-t) (in vivo [5]): 1220 ng·h/mL | clearance (in vivo [6]): 70.6 mL/min/kg | MRT (in vivo [7]): 41.4 min | AUC(0-t) (in vivo [8]): 5.39 ng·h/mL | AUC(0-t) (in vivo [9]): 2960 ng·h/mL | Cmax (in vivo [10]): 7.86 ng/mL | AUC(0-inf) (in vivo [11]): 3000 ng·h/mL | AUC(0-inf) (in vivo [12]): 1240 ng·h/mL | bioavailability (in vivo [13]): 0.44% | half-life (in vivo [14]): 161 min | Vd (in vivo [15]): 3.79 L/kg | Vd (in vivo [16]): 11.5 L/kg | MRT (in vivo [17]): 2.76 h
SMILES: COCCOc1ccc(C(N)=O)c(-c2c(Cl)ccc3c2C[C@@](CNCCC2CCN(c4ccc5c(c4)C(=O)N(C4CCC(=O)NC4=O)C5=O)CC2)(c2ccccc2)O3)c1F (some centres not stated)
